The text below walks through data of patent US20120065170A1, “Antimicrobial Cyclocarbonyl Heterocyclic Compounds For Treatment Of Bacterial Infections” (priority 2010, published 2012).

Data set [1] relates to S. aureus. As to the kind of experiment: MIC90 against linezolid-susceptible clinical isolates of S. aureus. The class given is cell-based, Staphylococcus aureus. As to conditions: for MIC90: Staphylococcus aureus, 34 strains, linezolid-susceptible, including MRSA. An excerpt: (§1) Compounds of this invention can have useful activity against a variety of pathogenic microorganisms. The in vitro activity of compounds of this invention can be assessed by standard testing procedures such as the determination of minimum inhibitory concentration (MIC) by agar dilution as described in “Approved Standard. Methods for Dilution Antimicrobial Susceptibility Tests for Bacteria That Grow Aerobically”, 3rd. ed., published 1993 by the National Committee for Clinical Laboratory Standards, Villanova, Pa., USA. Minimum inhibitory concentration (MIC) refers to the lowest concentration of drug (μg/mL) that inhibits visible growth of the organism. Lower MIC values indicate a higher antibacterial activity. Typically, compounds of the present invention have useful potency against Gram-positive or Gram-negative pathogens with MIC values of ≦8 μg/mL. To measure useful antibacterial activity against multiple bacterial isolates or strains, MIC90 (or minimal inhibitory concentration of the drug that inhibits visible growth of 90% of the microbes in each bacterial specie panel) is determined. Lower MIC number indicates an elevated degree of useful antibacterial activity, while higher MIC number indicates a reduced antibacterial activity. An agent with too high MIC against a bacterial pathogen can not be used for the treatment of infections caused by such microbial species.
(§2) The useful activity of compounds of the present invention against an expanded set of clinical isolates of Staphylococcus aureus (including methicillin-resistant strain, MRSA), Enterococci (including Enterococcus faecalis and Enterococus faecium), and […] is illustrated by the MIC90 data in Table 1.

For data set [2], the system named is H. influenzae. Kind of data set: MIC against isolates of H. influenzae. Type of data set: cell-based, Haemophilus influenzae. As to conditions: for MIC: Haemophilus influenzae.
Source text: as §1
The useful activity of representative compounds of the present invention against several isolates of H. influenzae is illustrated by the MIC data of Table 3. H. influenzae is a fastidious Gram-negative pathogen implicated in multiple infections, including pneumonia and bacterial meningitis. No oxazolidinone agent is presently approved for the treatment of H. influenzae infections.

Data set [3] has as its system S. pneumoniae. As to the kind of experiment: MIC90 against linezolid-susceptible S. pneumoniae. As to conditions: for MIC90: Streptococcus pneumoniae, read-out: S. pneumoniae (34 strains) MIC90. The class given is cell-based, Streptococcus pneumoniae.
Source text: as §1, §2

The subject of data set [4] is Enterococci. As to the kind of experiment: MIC90 against linezolid-susceptible Enterococci. The class given is cell-based. As to conditions: for MIC90: Enterococcus faecalis, 34 strains, linezolid-susceptible.
Source text: as §1, §2

Data set [5] deals with linezolid-resistant E. faecalis. As to the kind of experiment: MIC against linezolid-resistant E. faecalis strains. The class given is cell-based, Enterococus faecalis. Conditions: one value per group of strains; for MIC: Enterococcus faecalis, read-out: E. faecalis (no. of strains) MIC.
Source text: as §1
(§3) The useful activity of representative compounds of the present invention against several isolates of linezolid-resistant Staphylococcus aureus, Enterococus faecalis and Enterococcu faecium illustrated by the MIC data of Table 2.

Data set [6] relates to reticulocytes. Kind of data set: 5-days mouse sub-acute toxicity test (myelosuppression, reticulocyte count). Conditions: for Ratio for reticulocyte count relative to that for compound of Example 1 / fold drop in the reticulocyte cells counts compared to compound of Example 1: 37.5 mg/kg/day twice-daily, day 5. The class given is in vivo. As for the experimental part: The potential of representative compounds of this invention for myelosuppression has been evaluated in a 5-days mouse sub-acute toxicity test. For comparison purposes, Reference Compound 14 (Example 143 of publication US 2003/0166620) and Reference Compound 15 (TR-700 or torezolid; publications PCT WO2005/058886 and PCT WO2010/042887) have been included. The compounds were dosed to mice at 37.5 mg/kg/day on a twice-daily schedule. On day 5, blood was harvested for hematology testing. The toxicity was evaluated based on the reduction in the number of reticulocytes, previously described as the key marker for myelosuppression signs in pre-clinical testing of oxazolidinones, including linezolid. Thus, a higher degree of a reduction in the reticulocyte count is indicative of an elevated toxicity, while a lower drop in the reticulocyte count indicates a reduced propensity to the myelosuppression effect on the blood cells.

Data set [7] has as its system linezolid-resistant E. faecium. Kind of data set: MIC against linezolid-resistant E. faecium strains. Type of data set: cell-based, Enterococcus faecium. As to conditions: one value per group of strains; for MIC: Enterococcus faecium, read-out: E. faecium (no. of strains) MIC.
Source text: as §1, §3

Data set [8] deals with key Gram-positive pathogens. Kind of data set: MIC against key Gram-positive pathogens, further compounds (tests of Table 1). Type of data set: cell-based. As to conditions: in the tests of Table 1.
Source text: as §1, §2

For data set [9], the system named is linezolid-resistant S. aureus. As to the kind of experiment: MIC against linezolid-resistant S. aureus strains. Conditions: one value per group of strains; for MIC: Staphylococcus aureus, read-out: S. aureus (no. of strains) MIC. The class given is cell-based, Staphylococcus aureus.
Source text: as §1, §3

Data set [10] relates to Staphylococcus species. As to conditions: cited from earlier work.
Data set [11] deals with linezolid-resistant bacterial strains. As to conditions: cited from earlier work.
Data set [12] deals with Haemophilus influenzae. As to conditions: reported value; cited from earlier work.
[13] abbreviates: versus Reference Compound 15, Table 1 data.
The mark [14] stands for this setting: one value per group of strains, read-out: H. influenzae (no. of strains) MIC.
Where [15] appears, read: read-out: MIC values against H. influenzae as summarised in text, summary of Table 3.
Setting [16] is: 34 strains, linezolid-susceptible.
Where [17] appears, read: mice, 37.5 mg/kg/day on a twice-daily schedule, blood on day 5.

SMILES strings stand for the structures. Converted amounts (≈) assume the structure as drawn. Read-outs that look alike come from different tables or passages of the source. Some results are limits rather than exact numbers.

As usually defined, the MIC90 is an inhibitory concentration at the 90% level, which refers to growth in some studies and to a panel of isolates in others. On to `O=C1O[C@@H](CO)CN1c1ccc(-c2ccc(N3CCOC3=O)nc2)c(F)c1` [Example 1], for which the MIC90 was 0.125 µg/mL (≈ 0.335 µM) in data set [1], 0.06 µg/mL (≈ 0.161 µM) in data set [3] (setting [16]) and 0.25 µg/mL (≈ 0.67 µM) in data set [4]. In data set [1] (setting [13]), the “MIC90 fold lower than Reference Compound 15, S. aureus” value is on record as “about 4 fold”. For the same compound, the “MIC90 fold lower than linezolid, S. aureus” value in data set [1] (versus linezolid, Table 1 data) is on record as “about 16 fold”. Further, the MIC in data set [2] (setting [14]) was 2 µg/mL (≈ 5.36 µM); in data set [2] (setting [15]), under 4 µg/mL; in [5], 0.5 µg/mL (≈ 1.34 µM); in data set [7] it was 0.5 µg/mL (≈ 1.34 µM). Further, the “H. influenzae (no. of strains) MIC” value in [2] (one value per group of strains) was 4 (1 strain)^ μg/mL. Moreover, in data set [3] (setting [13]), the “MIC90 fold lower than Reference Compound 15, S. pneumoniae” value is listed as “about 4 fold”. For the same compound, the “MIC90 fold lower than linezolid, S. pneumoniae” value in [3] (versus linezolid, Table 1 data) is on record as “about 16 fold”. For the same compound, the “MIC90 fold lower than Reference Compound 15, Enterococci species” value in data set [4] (setting [13]) is about 2 fold. Besides, the “MIC90 fold lower than linezolid, Enterococci species” value in data set [4] (versus linezolid, Table 1 data) is given as about 8 fold. In addition, the “E. faecalis (no. of strains) MIC” value in [5] was 1 (3 strains) μg/mL. For the same compound, the “Reticulocyte count on Day 5, cell count” value in [6] (setting [17]) stood at 1.275e+11 L⁻¹. The “Ratio for reticulocyte count relative to that for compound of Example 1” value in data set [6] (mice) is on record as 1.

As to `O=C1O[C@@H](CO)CN1c1ccc(-c2ccc(N3CCNC3=O)nc2)c(F)c1` [Example 7], the “MIC values compared to linezolid or Reference Compound 15” value in [8] was “lower range MIC values”. Also, in data set [7], the MIC was determined as 0.5 µg/mL (≈ 1.34 µM) and the “E. faecium (no. of strains) MIC” value was 1 (4 strains) μg/mL.

For `O=C1O[C@@H](CO)CN1c1ccc(-c2ccc(N3CCCC3=O)nc2)c(F)c1` [Example 10], the MIC is 4 µg/mL (≈ 10.8 µM) in data set [2] (setting [14]), under 4 µg/mL in [2] (setting [15]), 1 µg/mL (≈ 2.69 µM) in data set [5] and 1 µg/mL (≈ 2.69 µM) in data set [7]. The “E. faecalis (no. of strains) MIC” value in data set [5] is recorded as 2 (3 strains) μg/mL. Further, the “MIC values compared to linezolid or Reference Compound 15” value in data set [8] is reported as “lower range MIC values”.

Consider `O=C1O[C@@H](CO)CN1c1ccc(-c2ccc(N3CCOC3=O)nc2)cc1` [Example 13], for which, in [2] (setting [14]), the MIC was 4 µg/mL (≈ 11.3 µM). The “MIC values compared to linezolid or Reference Compound 15” value in data set [8] is “lower range MIC values”.

For `CC(=O)NC[C@H]1CN(c2ccc(N3CCOCC3)c(F)c2)C(=O)O1` [Linezolid, linezolid], the MIC90 in data set [1] stood at 2 µg/mL (≈ 5.93 µM); in data set [3] (setting [16]), 1 µg/mL (≈ 2.96 µM); in data set [4], 2 µg/mL (≈ 5.93 µM). The MIC is 8 µg/mL (≈ 23.7 µM) in [2] (setting [14]), 16 µg/mL (≈ 47.4 µM) in [9], 16 µg/mL (≈ 47.4 µM) in data set [5] and 16 µg/mL (≈ 47.4 µM) in data set [7]. Further, in data set [2] (one value per group of strains), the “H. influenzae (no. of strains) MIC” value was 16 (2 strains) μg/mL. In addition, the “S. aureus (no. of strains) MIC” value in data set [9] is listed as >16 (3 strains) μg/mL. For the same compound, the “MIC against Staphylococci species (such as S. aureus)” value in data set [10] (generally displayed) was 2 to 4 µg/mL. The “useful MIC90 against Gram-positive Staphylococcus species” value in data set [10] (species for which the drug is indicated) is 2 to 4 µg/mL. Moreover, the “MICs against linezolid-resistant bacterial strains” value in data set [11] is at least 8 µg/mL. Besides, the “MIC90 against Haemophilus influenzae (typical)” value in [12] is 16 µg/mL (≈ 47.4 µM).

Turning to `CC(=O)NC[C@H]1CN(c2ccc(-c3ccc(N4CCOC4=O)nc3)c(F)c2)C(=O)O1` [Ref. Cpd. 14, N-[[(5S)-3-[3-fluoro-4-[6-(2-oxooxazolidin-3-yl)-3-pyridyl]phenyl]-2-oxo-oxazolidin-5-yl]methyl]acetamide], the “Reticulocyte count on Day 5, cell count” value in data set [6] (setting [17]) turned out to be 5e+10 L⁻¹. Besides, in data set [6] (mice), the “Ratio for reticulocyte count relative to that for compound of Example 1” value is recorded as 0.39 and the “fold drop in the reticulocyte cells counts compared to compound of Example 1” value is listed as about 2.6 fold.

`Cn1nnc(-c2ccc(-c3ccc(N4C[C@H](CO)OC4=O)cc3F)cn2)n1` [Ref. Cpd. 15, (5R)-3-[3-fluoro-4-[6-(2-methyltetrazol-5-yl)-3-pyridyl]phenyl]-5-(hydroxymethyl)oxazolidin-2-one]: the MIC90 in [1] amounted to 0.5 µg/mL (≈ 1.35 µM); in data set [3], 0.25 µg/mL (≈ 0.675 µM); in data set [4], 0.5 µg/mL (≈ 1.35 µM). The MIC in data set [2] (setting [14]) is over 16 µg/mL; in data set [9], 8 µg/mL (≈ 21.6 µM); in data set [5], 4 µg/mL (≈ 10.8 µM); in data set [7], 4 µg/mL (≈ 10.8 µM). Besides, in data set [2] (one value per group of strains), the “H. influenzae (no. of strains) MIC” value is given as 8 (4 strains) μg/mL. In addition, the “S. aureus (no. of strains) MIC” value in data set [9] is recorded as 4 (2 strains) μg/mL. Further, the “Ratio for reticulocyte count relative to that for compound of Example 1” value in data set [6] (mice) worked out at 0.15. Besides, the “fold drop in the reticulocyte cells counts compared to compound of Example 1” value in data set [6] (mice) was about 2.6 fold. For the same compound, the “Reticulocyte count on Day 5, cell count” value in data set [6] (mouse, in vivo, 37.5 mg/kg/day, 5 days) was 1.91e+10 L⁻¹. Also, the “E. faecium (no. of strains) MIC” value in data set [7] is given as 2 (1 strain)^ μg/mL.
